Patent US9475784B2, “4,6-diarylaminothiazines as BACE1 inhibitors and their use for the reduction of beta-amyloid production” (BRISTOL-MYERS SQUIBB COMPANY, priority 2012, dated 2016)
pIC50: −log10 of the molar value. Where a name gives a salt, the structure may show the parent alone.

Tested on: Aβ42 production in H4 cells stably transfected with APP751 containing the Swedish mutation (H4 APP751 SWE clone 8.20)
Assay: Cellular assay for inhibition of Aβ1-42 production (H4 APP751 SWE clone 8.20)
Format: cell-based
Details: H4 APP751 SWE clone 8.20 cells, 19 h incubation
Description: Cellular Assays for Inhibition of Aβ1-40 and Aβ1-42 Production
H4 cells stably transfected with APP751 containing the Swedish mutation (H4 APP751 SWE clone 8.20, developed at BMS) were maintained in log phase through twice weekly passage at a 1:20 split. […] Following incubation for 19 h in 5% CO2 at 37° C., plates were briefly centrifuged (1000 rpm, 5 min). A 10 μl aliquot from each well was transferred to a second assay plate (Costar 3709) for Aβ40 measurements. Antibody cocktails were freshly prepared by dilution into 40 mM Tris-HCl (pH 7.4) with 0.2% BSA and added to assay plates. For Aβ42 measurements, antibodies specific for the Aβ42 neoepitope (565, developed at BMS; conjugated to the Wallac reagent (Perkin Elmer)) and the N-terminal sequence of Aβ peptide (26D6, developed at SIBIA; conjugated to APC (Perkin Elmer)) were mixed and 20 μl of the mixture was added to each well of the incubated cell plate yielding a final concentration of 0.8 ng/well 565 and 75 ng/well 26D6. For the Aβ40 measurements, antibodies specific for the Aβ40 neoepitope (TSD, developed at BMS; conjugated to the Wallac reagent (Perkin Elmer)) and 26D6 as described above were mixed and 20 μl of the mixture was added to the 10 μl aliquots which had been removed previously from the cell plate yielding a final concentration of 1.6 ng/well TSD and 17.5 ng/well 26D6. Assay plates containing antibodies were sealed with aluminum foil and incubated overnight at 4° C. Signal was determined using a Viewlux counter (Perkin Elmer) and IC50 values determined using curve fitting in CurveMaster (Excel Fit based).

[1] = Table 5B, 6-heterocyclic thiazine examples
[2] = Table 5A, 6-alkyl and 6-substituted phenyl thiazine examples

Compound	pIC50 [1]	pIC50 [2]
Cc1oncc1[C@]1(C)C[C@@H](c2cc(-c3cncnc3)c(F)cc2F)N=C(N)S1 (racemic) [Example 33, (±)-4-(2,4-difluoro-5-(pyrimidin-5-yl)phenyl)-6-methyl-6-(5-methylisoxazol-4-yl)-5,6-dihydro-4H-1,3-thiazin-2-amine]	6.74	
Cc1noc(C)c1[C@]1(C)C[C@@H](c2cc(-c3cncnc3)c(F)cc2F)N=C(N)S1 (racemic) [Example 34, (±)-4-(2,4-difluoro-5-(pyrimidin-5-yl)phenyl)-6-(3,5-dimethylisoxazol-4-yl)-6-methyl-5,6-dihydro-4H-1,3-thiazin-2-amine•TFA]	5.57	
Cc1noc(C)c1[C@@H]1C[C@@H](c2cc(-c3cccc(C#N)c3)cs2)N=C(N)S1 (racemic) [Example 35, 3-(5-((±)-2-amino-6-(3,5-dimethylisoxazol-4-yl)-5,6-dihydro-4H-1,3-thiazin-4-yl)thiophen-3-yl)benzonitrile]	6.52	
CC#Cc1cncc(-c2csc([C@@H]3C[C@@H](c4c(C)noc4C)SC(N)=N3)c2)c1 (racemic) [Example 36, (±)-6-(3,5-dimethylisoxazol-4-yl)-4-(4-(5-(prop-1-ynyl)pyridin-3-yl)thiophen-2-yl)-5,6-dihydro-4H-1,3-thiazin-2-amine]	7.22	
Cc1noc(C)c1[C@@H]1C[C@@H](c2cc(NC(=O)c3ccc(Br)cn3)ccc2F)N=C(N)S1 (racemic) [Example 37, N-(3-((±)-2-amino-6-(3,5-dimethylisoxazol-4-yl)-5,6-dihydro-4H-1,3-thiazin-4-yl)-4-fluorophenyl)-5-bromopicolinamide]	7.66	
Cc1noc(C)c1[C@@H]1C[C@@H](c2cc(NC(=O)c3ccc(Cl)cn3)ccc2F)N=C(N)S1 (racemic) [Example 38, N-(3-((±)-2-amino-6-(3,5-dimethylisoxazol-4-yl)-5,6-dihydro-4H-1,3-thiazin-4-yl)-4-fluorophenyl)-5-chloropicolinamide•TFA]	7.96	
COc1ccc([C@@H]2C[C@@H](c3cc(-c4cncnc4)c(F)cc3F)N=C(N)S2)cc1OC (single isomer, unassigned) [Example 1A]		6.54
COc1ccc([C@@H]2C[C@@H](c3cccc(-c4cncnc4)c3)N=C(N)S2)cc1OC (single isomer, unassigned) [Example 3A]		5.96
COc1ccc([C@@H]2C[C@@H](c3ccc(F)c(-c4cncnc4)c3)N=C(N)S2)cc1OC (single isomer, unassigned) [Example 7A]		6.46
COc1ccc([C@@H]2C[C@@H](c3cc(-c4cncnc4)ccc3F)N=C(N)S2)cc1OC (single isomer, unassigned) [Example 8A]		6.34
Cc1noc(C)c1[C@@H]1C[C@@H](c2cc(-c3cncnc3)c(F)cc2F)N=C(N)S1 (single isomer, unassigned) [Example 29A]	7.22	
Cc1noc(C)c1[C@@H]1C[C@@H](c2cc(NC(=O)c3ccc(Cl)cn3)ccc2F)N=C(N)S1 (single isomer, unassigned) [Example 38A]	8.30	
COc1ccc([C@@H]2C[C@@H](c3cccc(-c4cncnc4)c3)N=C(N)S2)cn1 [Example 10, (4S,6S)-6-(6-methoxypyridin-3-yl)-4-(3-(pyrimidin-5-yl)phenyl)-5,6-dihydro-4H-1,3-thiazin-2-amine•TFA]	5.68	
Cc1noc(C)c1[C@@H]1C[C@@](C)(c2cc(-c3cncnc3)c(F)cc2F)N=C(N)S1 [Example 39, (4S,6S)-4-(2,4-difluoro-5-(pyrimidin-5-yl)phenyl)-6-(3,5-dimethylisoxazol-4-yl)-4-methyl-5,6-dihydro-4H-1,3-thiazin-2-amine]	8.10	
Cc1ncc(-c2cc([C@]3(C)C[C@@H](c4c(C)noc4C)SC(N)=N3)c(F)cc2F)cn1 [Example 40, (4S,6S)-4-(2,4-difluoro-5-(2-methylpyrimidin-5-yl)phenyl)-6-(3,5-dimethylisoxazol-4-yl)-4-methyl-5,6-dihydro-4H-1,3-thiazin-2-amine]	6.73	
Cc1nc([C@@H]2C[C@@](C)(c3cc(-c4cncnc4)c(F)cc3F)N=C(N)S2)c(C)o1 [Example 41, (4S,6S)-4-(2,4-difluoro-5-(pyrimidin-5-yl)phenyl)-6-(2,5-dimethyloxazol-4-yl)-4-methyl-5,6-dihydro-4H-1,3-thiazin-2-amine]	6.63	
Cc1nc(C)c([C@@H]2C[C@@](C)(c3cc(-c4cncnc4)c(F)cc3F)N=C(N)S2)o1 [Example 42, (4S,6S)-4-(2,4-difluoro-5-(pyrimidin-5-yl)phenyl)-6-(2,4-dimethyloxazol-5-yl)-4-methyl-5,6-dihydro-4H-1,3-thiazin-2-amine]	6.97	
Cc1nc(C)c([C@@H]2C[C@@](C)(c3cc(-c4cncnc4)c(F)cc3F)N=C(N)S2)s1 [Example 43, (4S,6S)-4-(2,4-difluoro-5-(pyrimidin-5-yl)phenyl)-6-(2,4-dimethylthiazol-5-yl)-4-methyl-5,6-dihydro-4H-1,3-thiazin-2-amine]	6.68	
CC#Cc1cncc(-c2cc(Cl)c([C@]3(C)C[C@@H](c4c(C)noc4C)SC(N)=N3)s2)c1 [Example 44, (4S,6S)-4-(3-chloro-5-(5-(prop-1-ynyl)pyridin-3-yl)thiophen-2-yl)-6-(3,5-dimethylisoxazol-4-yl)-4-methyl-5,6-dihydro-4H-1,3-thiazin-2-amine]	7.52	
Cc1noc(C)c1[C@@H]1C[C@@](C)(c2ccc(F)cc2F)N=C(N)S1 [Example 45, (4S,6S)-4-(2,4-difluorophenyl)-6-(3,5-dimethylisoxazol-4-yl)-4-methyl-5,6-dihydro-4H-1,3-thiazin-2-amine]	6.82	
Cc1noc(C)c1[C@@H]1C[C@@](C)(c2cc(-c3cnc(F)nc3)c(F)cc2F)N=C(N)S1 [Example 46, (4S,6S)-4-(2,4-difluoro-5-(2-fluoropyrimidin-5-yl)phenyl)-6-(3,5-dimethylisoxazol-4-yl)-4-methyl-5,6-dihydro-4H-1,3-thiazin-2-amine]	6.41	
CC(=O)c1cc([C@]2(C)C[C@@H](c3c(C)noc3C)SC(N)=N2)c(F)cc1F [Example 47, 1-(5-((4S,6S)-2-amino-6-(3,5-dimethylisoxazol-4-yl)-4-methyl-5,6-dihydro-4H-1,3-thiazin-4-yl)-2,4-difluorophenyl)ethanone]	6.66	
Cc1noc(CC(C)(C)O)c1[C@@H]1C[C@@](C)(c2ccc(F)cc2F)N=C(N)S1 [Example 48, 1-(4-((4S,6S)-2-amino-4-(2,4-difluorophenyl)-4-methyl-5,6-dihydro-4H-1,3-thiazin-6-yl)-3-methylisoxazol-5-yl)-2-methylpropan-2-ol]	6.96	
Cc1noc(C)c1[C@@H]1C[C@@](C)(c2cc(F)cc(F)c2)N=C(N)S1 [Example 49, (4S,6S)-4-(3,5-difluorophenyl)-6-(3,5-dimethylisoxazol-4-yl)-4-methyl-5,6-dihydro-4H-1,3-thiazin-2-amine]	6.57	
Cc1noc(C)c1[C@@H]1C[C@@](C)(c2cc(F)c(F)c(F)c2)N=C(N)S1 [Example 50, (4S,6S)-6-(3,5-dimethylisoxazol-4-yl)-4-methyl-4-(3,4,5-trifluorophenyl)-5,6-dihydro-4H-1,3-thiazin-2-amine]	6.08	
CC[C@@]1(c2ccc(F)cc2F)C[C@@H](c2c(C)noc2C)SC(N)=N1 [Example 51, (4S,6S)-4-(2,4-difluorophenyl)-6-(3,5-dimethylisoxazol-4-yl)-4-ethyl-5,6-dihydro-4H-1,3-thiazin-2-amine]	5.89	
Cc1noc(C)c1[C@@H]1C[C@@](C)(c2cc(-c3cnc(S(C)(=O)=O)nc3)c(F)cc2F)N=C(N)S1 [Example 52, (4S,6S)-4-(2,4-difluoro-5-(2-(methylsulfonyl)pyrimidin-5-yl)phenyl)-6-(3,5-dimethylisoxazol-4-yl)-4-methyl-5,6-dihydro-4H-1,3-thiazin-2-amine]	6.09	
Cc1noc(C)c1[C@@H]1C[C@@](C)(c2cc(-c3cncc(O)c3)c(F)cc2F)N=C(N)S1 [Example 53, 5-(5-((4S,6S)-2-amino-6-(3,5-dimethylisoxazol-4-yl)-4-methyl-5,6-dihydro-4H-1,3-thiazin-4-yl)-2,4-difluorophenyl)pyridin-3-ol]	6.52	
COc1ccc(-c2cc([C@]3(C)C[C@@H](c4c(C)noc4C)SC(N)=N3)c(F)cc2F)cn1 [Example 54, (4S,6S)-4-(2,4-difluoro-5-(6-methoxypyridin-3-yl)phenyl)-6-(3,5-dimethylisoxazol-4-yl)-4-methyl-5,6-dihydro-4H-1,3-thiazin-2-amine]	6.49	
Cc1noc(C)c1[C@@H]1C[C@@](C)(c2cc(-c3cccnc3C#N)c(F)cc2F)N=C(N)S1 [Example 55, 3-(5-((4S,6S)-2-amino-6-(3,5-dimethylisoxazol-4-yl)-4-methyl-5,6-dihydro-4H-1,3-thiazin-4-yl)-2,4-difluorophenyl)picolinonitrile]	7.06	
